≈ marks a conversion by molar mass, not a printed value. Where two headings read alike, the source gives them in different places. Residues, ends and D or L forms follow the SMILES beside them.
What was measured:
[1] = tested on: HA-mediated membrane fusion (H7N7 HA in 293T cells); conditions: pH 5
MDCK cells = experiment: MTT cytotoxicity assay in MDCK cells; conditions: 24 h incubation at 37 °C, DMEM with 1% FBS, three independent experiments
A(H1N1)pdm09 virus [2] = assay type: cell-based
293T cells [3] = tested on: 293T cells
A(H7N7) virus [4] = conditions: 1 h, pH 7.4
[5] = tested on: endosomal acidification in MDCK cells; experiment: Endosomal acidification analysis in live cells; assay type: cell-based, canine; conditions: pHrodo Red dextran, P1 25.0 μg ml-1, TAT-P1 3.1 μg ml-1, bafilomycin A1 100.0 nM, PA1 25.0 μg ml-1
[6] = target: viral HA protein (H1N1 glycoprotein HA1) (Influenza A virus, UniProt C3W5S1); conditions: ELISA (peptide 0.1 μg per well, HA1 2 μg ml-1) and western blot (peptide 1 μg)
Sequence of viral HA protein (H1N1 glycoprotein HA1) (C3W5S1 18-344 limits assumed): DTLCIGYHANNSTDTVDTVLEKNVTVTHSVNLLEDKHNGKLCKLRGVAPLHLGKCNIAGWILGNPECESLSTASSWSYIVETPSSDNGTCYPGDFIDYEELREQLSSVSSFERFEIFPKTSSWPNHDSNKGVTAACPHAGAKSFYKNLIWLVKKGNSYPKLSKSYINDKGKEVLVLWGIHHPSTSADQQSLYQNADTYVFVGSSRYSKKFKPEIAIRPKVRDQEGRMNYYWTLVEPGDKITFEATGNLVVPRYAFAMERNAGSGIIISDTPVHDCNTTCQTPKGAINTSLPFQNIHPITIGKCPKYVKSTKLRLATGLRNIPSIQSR

293T cells [7] = experiment: MTT cytotoxicity assay in 293T cells; conditions: 24 h incubation at 37 °C, DMEM with 1% FBS, three independent experiments
A(H1N1)pdm09 virus [8] = conditions: 1 h, pH 7.4
A(H7N7) virus [9] = assay type: cell-based
A(H7N7) virus [10] = tested on: A(H7N7) virus; design: species or system BALB/c female mice; conditions: mouse, in vivo
A(H1N1)pdm09 virus [11] = tested on: A(H1N1)pdm09 virus; design: species or system BALB/c female mice; conditions: mouse, in vivo
A(H1N1)pdm09 virus [12] = tested on: A(H1N1)pdm09 virus; design: species or system BALB/c female mice; conditions: in vivo
endosomal acidification = conditions: cited from earlier work

CC[C@H](C)[C@H](NC(=O)[C@H](CCC(N)=O)NC(=O)[C@H](CCCNC(=N)N)NC(=O)[C@H](Cc1ccccc1)NC(=O)[C@H](C)NC(=O)[C@@H](NC(=O)[C@@H]1CCCN1C(=O)[C@H](CS)NC(=O)[C@@H]1CCCN1C(=O)CNC(=O)[C@H](Cc1c[nH]c2ccccc12)NC(=O)[C@@H](N)CS)[C@@H](C)O)C(=O)NCC(=O)N[C@@H](CC(N)=O)C(=O)N[C@@H](CS)C(=O)NCC(=O)N[C@@H](CCCNC(=N)N)C(=O)N[C@@H](Cc1ccccc1)C(=O)N[C@@H](CCCNC(=N)N)C(=O)N[C@H](C(=O)N[C@@H](CCCNC(=N)N)C(=O)N[C@@H](CS)C(=O)N[C@@H](CS)C(=O)N[C@@H](CCCNC(=N)N)C(=O)N[C@H](C(=O)N[C@@H](CCCNC(=N)N)C(=O)O)[C@@H](C)CC)C(C)C [P1] (H-CWGPCPTAFRQIGNCGRFRVRCCRIR-OH)
inhibition of HA-mediated membrane fusion [1]: did not inhibit HA-mediated membrane fusion | CC50 (MDCK) (MDCK cells): > 400 µg/mL | block of viral RNP release into the nuclei (A(H1N1)pdm09 virus [2]): blocked viral RNP release into the nuclei | inhibition of viral replication in 293T cells (H7N7 virus): significantly inhibit viral replication | concentration that significantly enhances the transfection efficiency of plasmid DNA (293T cells [3]): 12.5 | IC50 (H7N7) (A(H7N7) virus [4]): 1.56 µg/mL (≈ 0.51 µM) | prevention of endosomal acidification [5]: prevented endosomal acidification | binding to viral HA protein [6]: bind to viral HA protein | CC50 (293T) (293T cells [7]): > 400 µg/mL

CO/C1=C\C(C)=C\[C@@H](C)[C@@H](O)[C@@H](C)C/C(C)=C/C=C/[C@H](OC)[C@@H]([C@@H](C)[C@@H](O)[C@H](C)[C@@]2(O)C[C@@H](O)[C@H](C)[C@@H](C(C)C)O2)OC1=O [Bafilomycin A1, reference compound]
block of viral RNP release into the nuclei (A(H1N1)pdm09 virus [2]): blocked viral RNP release into the nuclei | prevention of endosomal acidification [5]: prevented endosomal acidification

CC[C@H](C)[C@H](NC(=O)[C@H](CCCNC(=N)N)NC(=O)[C@H](CS)NC(=O)[C@H](CS)NC(=O)[C@H](CCCNC(=N)N)NC(=O)[C@@H](NC(=O)[C@H](CCCNC(=N)N)NC(=O)[C@H](Cc1ccccc1)NC(=O)[C@H](CCCNC(=N)N)NC(=O)CNC(=O)[C@H](CS)NC(=O)[C@H](CC(N)=O)NC(=O)[C@H](CCCNC(=N)N)NC(=O)[C@H](CCCCN)NC(=O)[C@H](CCCNC(=N)N)NC(=O)[C@H](Cc1ccccc1)NC(=O)[C@H](C)NC(=O)[C@H](CCCNC(=N)N)NC(=O)[C@@H]1CCCN1C(=O)[C@H](CS)NC(=O)[C@@H]1CCCN1C(=O)[C@H](CCCNC(=N)N)NC(=O)[C@H](Cc1c[nH]c2ccccc12)NC(=O)[C@H](CS)NC(=O)[C@H](CCCNC(=N)N)NC(=O)[C@H](CCCNC(=N)N)NC(=O)[C@H](CCCNC(=N)N)NC(=O)[C@H](CCC(N)=O)NC(=O)[C@H](CCCNC(=N)N)NC(=O)[C@H](CCCNC(=N)N)NC(=O)[C@H](CCCCN)NC(=O)[C@H](CCCCN)NC(=O)[C@H](CCCNC(=N)N)NC(=O)CNC(=O)[C@@H](N)Cc1ccc(O)cc1)[C@@H](C)CC)C(=O)N[C@@H](CCCNC(=N)N)C(=O)O [TAT-P2] (H-YGRKKRRQRRRCWRPCPRAFRKRNCGRFRIRCCRIR-OH; N-terminus and C-terminus assumed)
IC50 (H7N7) (A(H7N7) virus [4]): 0.97 µg/mL (≈ 0.204 µM) | IC50 (H1N1) (A(H1N1)pdm09 virus [8]): 0.76 µg/mL (≈ 0.16 µM)

CC[C@H](C)[C@H](NC(=O)[C@H](CCCNC(=N)N)NC(=O)[C@H](CS)NC(=O)[C@H](CCCNC(=N)N)NC(=O)[C@@H](NC(=O)[C@H](CCCNC(=N)N)NC(=O)[C@H](Cc1ccccc1)NC(=O)[C@H](CCCNC(=N)N)NC(=O)CNC(=O)[C@H](CS)NC(=O)[C@H](CC(C)C)NC(=O)[C@H](CCC(N)=O)NC(=O)[C@H](CCCNC(=N)N)NC(=O)[C@H](Cc1ccccc1)NC(=O)[C@H](CO)NC(=O)[C@@H]1CCCN1C(=O)[C@H](CS)NC(=O)[C@@H]1CCCN1C(=O)[C@H](CCCNC(=N)N)NC(=O)[C@H](Cc1c[nH]c2ccccc12)NC(=O)[C@H](CS)NC(=O)[C@H](CCCNC(=N)N)NC(=O)[C@H](CCCNC(=N)N)NC(=O)[C@H](CCCNC(=N)N)NC(=O)[C@H](CCC(N)=O)NC(=O)[C@H](CCCNC(=N)N)NC(=O)[C@H](CCCNC(=N)N)NC(=O)[C@H](CCCCN)NC(=O)[C@H](CCCCN)NC(=O)[C@H](CCCNC(=N)N)NC(=O)CNC(=O)[C@@H](N)Cc1ccc(O)cc1)[C@@H](C)CC)C(=O)N[C@@H](CCCNC(=N)N)C(=O)O [TAT-P3] (H-YGRKKRRQRRRCWRPCPSFRQLCGRFRIRCRIR-OH; N-terminus and C-terminus assumed)
IC50 (H7N7) (A(H7N7) virus [4]): 0.78 µg/mL (≈ 0.179 µM) | IC50 (H1N1) (A(H1N1)pdm09 virus [8]): 0.68 µg/mL (≈ 0.156 µM)

CC(=O)N[C@H]1[C@H]([C@H](O)[C@H](O)CO)OC(C(=O)O)=C[C@@H]1N=C(N)N [zanamivir]
susceptibility of virus to zanamivir (A(H7N7) virus [9]): reduced susceptibility | body weight loss (A(H7N7) virus [10]): significantly less body weight loss | survival (A(H7N7) virus [10]): 40% | survival (A(H1N1)pdm09 virus [11]): 90% | viral titers / viral replication in mouse lungs (A(H1N1)pdm09 virus [12]): significantly reduced | IL-6 expression in mice (A(H1N1)pdm09 virus [12]; mouse): significantly reduced | body weight loss (A(H1N1)pdm09 virus [12]; mouse): significantly reduced | survival (A(H1N1)pdm09 virus [12]; mouse): 90%

N=C(N)NCCC[C@H](NC(=O)[C@H](CCCNC(=N)N)NC(=O)[C@H](CCCNC(=N)N)NC(=O)[C@H](CCC(N)=O)NC(=O)[C@H](CCCNC(=N)N)NC(=O)[C@H](CCCNC(=N)N)NC(=O)[C@H](CCCCN)NC(=O)[C@H](CCCCN)NC(=O)[C@H](CCCNC(=N)N)NC(=O)CNC(=O)[C@@H](N)Cc1ccc(O)cc1)C(=O)O [TAT, reference compound]
CC50 (MDCK) (MDCK cells): > 400 µg/mL | CC50 (293T) (293T cells [7]): > 400 µg/mL

CCN(CC)CCCC(C)Nc1ccnc2cc(Cl)ccc12 (centres unmarked) [chloroquine]
effective concentrations for inhibiting endosomal acidification (endosomal acidification): ~ 100 μM

CC[C@H](C)[C@H](NC(=O)[C@H](CCC(N)=O)NC(=O)[C@H](CCCNC(=N)N)NC(=O)[C@H](Cc1ccccc1)NC(=O)[C@H](C)NC(=O)[C@@H](NC(=O)[C@@H]1CCCN1C(=O)[C@H](CS)NC(=O)[C@@H]1CCCN1C(=O)CNC(=O)[C@H](Cc1c[nH]c2ccccc12)NC(=O)[C@H](CS)NC(=O)[C@H](CCCNC(=N)N)NC(=O)[C@H](CCCNC(=N)N)NC(=O)[C@H](CCCNC(=N)N)NC(=O)[C@H](CCC(N)=O)NC(=O)[C@H](CCCNC(=N)N)NC(=O)[C@H](CCCNC(=N)N)NC(=O)[C@H](CCCCN)NC(=O)[C@H](CCCCN)NC(=O)[C@H](CCCNC(=N)N)NC(=O)CNC(=O)[C@@H](N)Cc1ccc(O)cc1)[C@@H](C)O)C(=O)NCC(=O)N[C@@H](CC(N)=O)C(=O)N[C@@H](CS)C(=O)NCC(=O)N[C@@H](CCCNC(=N)N)C(=O)N[C@@H](Cc1ccccc1)C(=O)N[C@@H](CCCNC(=N)N)C(=O)N[C@H](C(=O)N[C@@H](CCCNC(=N)N)C(=O)N[C@@H](CS)C(=O)N[C@@H](CS)C(=O)N[C@@H](CCCNC(=N)N)C(=O)N[C@H](C(=O)N[C@@H](CCCNC(=N)N)C(=O)O)[C@@H](C)CC)C(C)C [TAT-P1] (H-YGRKKRRQRRRCWGPCPTAFRQIGNCGRFRVRCCRIR-OH)
inhibition of HA-mediated membrane fusion [1]: did not inhibit HA-mediated membrane fusion | block of viral RNP release into the nuclei (A(H1N1)pdm09 virus [2]): blocked viral RNP release into the nuclei | inhibition of viral replication in 293T cells (H7N7 virus): significantly inhibit viral replication | survival (A(H7N7) virus [10]): 30% | IC50 (H7N7) (A(H7N7) virus [4]): 0.56 µg/mL (≈ 0.122 µM) | prevention of endosomal acidification [5]: prevented endosomal acidification | IC50 (H1N1) (A(H1N1)pdm09 virus [8]): 0.67 µg/mL (≈ 0.146 µM) | binding to viral HA protein [6]: bind to viral HA protein | weight ratio (peptide:DNA) at which complexes with DNA form (plasmid DNA): > 2

Reference: article PMC6004018, “Dual-functional peptide with defective interfering genes effectively protects mice against avian and seasonal influenza” (Nature Communications, 2018)
